Our source for the Emax and EC50 values is patent US10899759B2, “Positive allosteric modulators of the muscarinic acetylcholine receptor M1” (Vanderbilt University, priority 2016, dated 2021).

The test addresses T1, human mAChR M1 (Homo sapiens, UniProt P11229).
T1 construct: host or cells: CHO-K1
T1 sequence (P11229 1-460): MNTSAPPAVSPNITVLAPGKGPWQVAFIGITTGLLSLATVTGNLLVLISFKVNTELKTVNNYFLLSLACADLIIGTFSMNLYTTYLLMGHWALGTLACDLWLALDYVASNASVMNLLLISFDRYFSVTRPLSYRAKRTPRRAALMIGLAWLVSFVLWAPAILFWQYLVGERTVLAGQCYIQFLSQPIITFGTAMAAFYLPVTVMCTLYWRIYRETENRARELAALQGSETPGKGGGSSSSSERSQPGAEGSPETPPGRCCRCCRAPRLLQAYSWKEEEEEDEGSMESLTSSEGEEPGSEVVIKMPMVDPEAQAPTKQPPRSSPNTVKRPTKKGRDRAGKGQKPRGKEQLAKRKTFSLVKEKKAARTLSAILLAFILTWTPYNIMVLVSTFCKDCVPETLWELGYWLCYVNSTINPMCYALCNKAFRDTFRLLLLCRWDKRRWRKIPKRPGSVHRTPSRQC
Briefly: mAChR M1 cell-based functional assay (calcium mobilization, Fluo-4, FDSS). The note with it: CHO-K1 cells stably expressing hM1; for Emax: EC20 acetylcholine response, read-out: Human M1 Emax; for EC50: positive allosteric modulator activity as increase in the EC20 acetylcholine response. Put shortly:
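CHO-K1 cells stably expressing muscarinic receptor, loaded with Fluo-4; 11-point 1:3 compound series added and calcium flux read over 300 s at 1 Hz. Agonism from direct calcium rise, PAM activity as potentiation of EC20 acetylcholine, antagonism as decrease of EC80 acetylcholine; four-parameter logistic fits.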
In general terms: Calcium flux is commonly read through the fluorescence of an indicator in the cells.

By Emax is commonly meant the size of the effect at its maximum, as opposed to the concentration needed. The term EC50 denotes the concentration that produces a half-maximal response. With `COCCNC(=O)c1cc(Cc2ccc(-c3coc(C)n3)cc2)c2ccsc2n1` [Compound 143, N-(2-methoxyethyl)-4-[[4-(2-methyloxazol-4-yl)phenyl]methyl]thieno[2,3-b]pyridine-6-carboxamide], the Emax turned out to be 60.8% and the 50% effective concentration (EC50) came to 280 nM.

In the case of `COCC(C)NC(=O)c1cc(Cc2ccc(-c3coc(C)n3)cc2)c2ccsc2n1` (stereo not drawn) [Compound 144, N-(2-methoxy-1-methyl-ethyl)-4-[[4-(2-methyloxazol-4-yl)phenyl]methyl]thieno[2,3-b]pyridine-6-carboxamide], the maximal effect (Emax) was 64.2% and the EC50 was found to be 950 nM.

For the compound `Cn1ccc(-c2ccc(Cc3cc(C(=O)NC4CCOCC4)nc4c3ccn4C)cn2)n1` [Compound 145, 1-methyl-4-[[6-(1-methylpyrazol-3-yl)-3-pyridyl]methyl]-N-tetrahydropyran-4-yl-pyrrolo[2,3-b]pyridine-6-carboxamide], the Emax is 77.6% and the EC50 was determined as 470 nM.

`Cn1ccc(-c2ccc(Cc3cc(C(=O)NC4CCOC(C)(C)C4)nc4c3ccn4C)cn2)n1` (stereo not drawn) [Compound 146, N-(2,2-dimethyltetrahydropyran-4-yl)-1-methyl-4-[[6-(1-methylpyrazol-3-yl)-3-pyridyl]methyl]pyrrolo[2,3-b]pyridine-6-carboxamide]: the Emax turned out to be 79.3% and the concentration for a half-maximal effect (EC50) was determined as 520 nM.

On to `Cn1ccc(-c2ccc(Cc3cc(C(=O)NC4CCOCC4(C)C)nc4c3ccn4C)cn2)n1` (stereo not drawn) [Compound 147], for which the maximal effect (Emax) was 81.6% and the EC50 stood at 190 nM.

`CC1CC(NC(=O)c2cc(Cc3ccc(-c4ccn(C)n4)nc3)c3ccn(C)c3n2)CC(C)O1` (stereo not drawn) [Compound 148, N-(2,6-dimethyltetrahydropyran-4-yl)-1-methyl-4-[[6-(1-methylpyrazol-3-yl)-3-pyridyl]methyl]pyrrolo[2,3-b]pyridine-6-carboxamide]: the Emax amounted to 82.4% and the EC50 was 940 nM.

As to `Cn1ccc(-c2ccc(Cc3cc(C(=O)NC4CC5(COC5)C4)nc4c3ccn4C)cn2)n1` [Compound 149, 1-methyl-4-[[6-(1-methylpyrazol-3-yl)-3-pyridyl]methyl]-N-(2-oxaspiro[3.3]heptan-6-yl)pyrrolo[2,3-b]pyridine-6-carboxamide], the Emax was 78.1% and the half-maximal effective concentration (EC50) was found to be 370 nM.

As to `Cn1ccc(-c2ccc(Cc3cc(C(=O)NCC4CCOCC4)nc4c3ccn4C)cn2)n1` [Compound 150], the maximal effect (Emax) was 77.7% and the half-maximal effective concentration (EC50) is 820 nM.

For the compound `Cn1ccc(-c2ccc(Cc3cc(C(=O)NCC4CCOC4)nc4c3ccn4C)cn2)n1` (stereo not drawn) [Compound 151, 1-methyl-4-[[6-(1-methylpyrazol-3-yl)-3-pyridyl]methyl]-N-(tetrahydrofuran-3-ylmethyl)pyrrolo[2,3-b]pyridine-6-carboxamide], the maximal effect (Emax) came to 76.4% and the EC50 was 1210 nM.

For the compound `Cn1ccc(-c2ccc(Cc3cc(C(=O)NC4(C)COC4)nc4c3ccn4C)cn2)n1` [Compound 152, 1-methyl-N-(3-methyloxetan-3-yl)-4-[[6-(1-methylpyrazol-3-yl)-3-pyridyl]methyl]pyrrolo[2,3-b]pyridine-6-carboxamide], the Emax came to 45.5% and the EC50 is greater than 10000 nM.

As to `Cn1ccc(-c2ccc(Cc3cc(C(=O)N[C@H]4CCC[C@@H]4O)nc4c3ccn4C)cn2)n1` [Compound 153, N-[(1S,2S)-2-hydroxycyclopentyl]-1-methyl-4-[[6-(1-methylpyrazol-3-yl)-3-pyridyl]methyl]pyrrolo[2,3-b]pyridine-6-carboxamide], the Emax came out at 75.1% and the EC50 came to 190 nM.

As for `Cn1ccc(-c2ccc(Cc3cc(C(=O)NC4CC(F)(F)C4)nc4c3ccn4C)cn2)n1` [Compound 154, N-(3,3-difluorocyclobutyl)-1-methyl-4-[[6-(1-methylpyrazol-3-yl)-3-pyridyl]methyl]pyrrolo[2,3-b]pyridine-6-carboxamide], the Emax worked out at 66.1% and the EC50 was 2530 nM.
